From PMC4854315, “Discovery of a novel allosteric inhibitor-binding site in ERK5: comparison with the canonical kinase hinge ATP-binding site” (Acta Crystallographica. Section D, Structural Biology, 2016)

Experiments:
Assay in all cases: Z'-LYTE kinase panel
Assay type in all cases: biochemical
[1] = target: T1, STK22B (TSSK2) (Homo sapiens, UniProt Q96PF2)
T1 construct: purchased ThermoFisher (SelectScreen, Z'-LYTE)
T1 sequence (Q96PF2 1-358): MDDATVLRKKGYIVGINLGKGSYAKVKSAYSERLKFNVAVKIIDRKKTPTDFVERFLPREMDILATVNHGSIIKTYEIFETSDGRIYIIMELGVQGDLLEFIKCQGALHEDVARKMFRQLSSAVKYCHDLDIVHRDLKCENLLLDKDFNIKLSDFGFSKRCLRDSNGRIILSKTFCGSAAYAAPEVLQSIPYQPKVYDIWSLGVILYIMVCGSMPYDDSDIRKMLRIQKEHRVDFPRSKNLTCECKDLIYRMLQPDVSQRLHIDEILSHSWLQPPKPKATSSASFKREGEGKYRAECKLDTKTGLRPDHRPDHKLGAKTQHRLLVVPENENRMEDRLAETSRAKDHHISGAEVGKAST
How it was run: (§1)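 Standard Z′-LYTE protocol applied. Compound fixed at 10 µM. Output: % inhibition. Panel size 225 kinases.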

[2] = target: T2, CDC42 BPA (MRCKA) (Homo sapiens, UniProt Q5VT25)
T2 construct: purchased ThermoFisher (SelectScreen, Z'-LYTE)
T2 sequence (Q5VT25 whole entry): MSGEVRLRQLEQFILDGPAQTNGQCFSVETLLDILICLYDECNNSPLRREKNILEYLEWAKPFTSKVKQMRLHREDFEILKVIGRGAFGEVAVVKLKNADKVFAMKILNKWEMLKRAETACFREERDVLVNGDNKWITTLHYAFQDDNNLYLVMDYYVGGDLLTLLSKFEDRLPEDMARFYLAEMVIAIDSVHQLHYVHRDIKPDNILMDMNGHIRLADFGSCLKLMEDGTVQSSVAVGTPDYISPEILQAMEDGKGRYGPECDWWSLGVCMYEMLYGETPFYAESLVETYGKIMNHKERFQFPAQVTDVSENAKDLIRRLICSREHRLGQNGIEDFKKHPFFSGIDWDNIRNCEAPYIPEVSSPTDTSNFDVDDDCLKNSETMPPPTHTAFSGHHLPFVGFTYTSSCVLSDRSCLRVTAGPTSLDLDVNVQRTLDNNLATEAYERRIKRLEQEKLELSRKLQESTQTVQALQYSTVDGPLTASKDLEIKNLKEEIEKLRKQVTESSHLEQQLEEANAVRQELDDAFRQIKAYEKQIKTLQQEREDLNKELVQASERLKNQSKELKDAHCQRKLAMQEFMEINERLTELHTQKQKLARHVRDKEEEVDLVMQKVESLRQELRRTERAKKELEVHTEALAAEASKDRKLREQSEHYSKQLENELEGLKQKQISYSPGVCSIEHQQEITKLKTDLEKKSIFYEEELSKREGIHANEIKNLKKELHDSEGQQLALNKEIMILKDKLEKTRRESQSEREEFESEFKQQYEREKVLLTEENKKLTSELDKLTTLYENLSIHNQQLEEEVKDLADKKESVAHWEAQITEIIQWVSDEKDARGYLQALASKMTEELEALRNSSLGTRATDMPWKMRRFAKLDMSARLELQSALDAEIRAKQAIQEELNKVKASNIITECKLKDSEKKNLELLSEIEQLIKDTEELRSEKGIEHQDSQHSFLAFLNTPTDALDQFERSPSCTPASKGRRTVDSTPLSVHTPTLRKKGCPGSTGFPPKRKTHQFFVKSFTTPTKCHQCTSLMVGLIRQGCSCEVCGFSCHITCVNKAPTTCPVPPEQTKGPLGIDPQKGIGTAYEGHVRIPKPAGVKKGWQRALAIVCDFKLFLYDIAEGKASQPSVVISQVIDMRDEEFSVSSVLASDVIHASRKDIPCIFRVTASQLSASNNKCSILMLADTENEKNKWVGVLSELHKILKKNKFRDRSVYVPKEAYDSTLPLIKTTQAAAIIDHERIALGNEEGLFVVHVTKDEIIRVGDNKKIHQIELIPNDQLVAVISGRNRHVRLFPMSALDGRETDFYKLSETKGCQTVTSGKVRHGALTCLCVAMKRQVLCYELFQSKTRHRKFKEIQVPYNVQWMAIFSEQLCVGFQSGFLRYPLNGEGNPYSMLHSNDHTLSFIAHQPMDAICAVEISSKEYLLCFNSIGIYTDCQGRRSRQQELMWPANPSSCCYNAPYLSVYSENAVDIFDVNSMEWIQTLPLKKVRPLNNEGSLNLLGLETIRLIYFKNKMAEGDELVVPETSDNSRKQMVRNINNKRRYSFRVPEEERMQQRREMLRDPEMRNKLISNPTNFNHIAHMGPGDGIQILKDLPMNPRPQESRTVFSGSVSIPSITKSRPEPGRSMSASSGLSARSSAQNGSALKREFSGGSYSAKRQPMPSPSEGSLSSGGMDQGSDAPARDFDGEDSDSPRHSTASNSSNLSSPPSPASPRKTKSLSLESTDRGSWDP
How it was run: as §1

[3] = target: T3, AURKB (Aurora B) (Homo sapiens, UniProt Q96GD4)
T3 construct: purchased ThermoFisher (SelectScreen, Z'-LYTE)
T3 sequence (Q96GD4 whole entry): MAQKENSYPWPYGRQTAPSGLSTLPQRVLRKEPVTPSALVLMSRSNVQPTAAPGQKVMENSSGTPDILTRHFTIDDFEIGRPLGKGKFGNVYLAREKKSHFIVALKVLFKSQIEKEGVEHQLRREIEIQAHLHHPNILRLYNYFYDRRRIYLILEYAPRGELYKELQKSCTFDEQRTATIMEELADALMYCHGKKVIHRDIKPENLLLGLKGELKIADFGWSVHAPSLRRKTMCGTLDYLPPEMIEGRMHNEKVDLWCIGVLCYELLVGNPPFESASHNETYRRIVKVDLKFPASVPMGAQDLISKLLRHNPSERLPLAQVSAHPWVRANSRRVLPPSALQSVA
How it was run: as §1

[4] = target: T4, MST1R (RON) (Homo sapiens, UniProt Q04912)
T4 construct: purchased ThermoFisher (SelectScreen, Z'-LYTE)
T4 sequence (Q04912 25-1400): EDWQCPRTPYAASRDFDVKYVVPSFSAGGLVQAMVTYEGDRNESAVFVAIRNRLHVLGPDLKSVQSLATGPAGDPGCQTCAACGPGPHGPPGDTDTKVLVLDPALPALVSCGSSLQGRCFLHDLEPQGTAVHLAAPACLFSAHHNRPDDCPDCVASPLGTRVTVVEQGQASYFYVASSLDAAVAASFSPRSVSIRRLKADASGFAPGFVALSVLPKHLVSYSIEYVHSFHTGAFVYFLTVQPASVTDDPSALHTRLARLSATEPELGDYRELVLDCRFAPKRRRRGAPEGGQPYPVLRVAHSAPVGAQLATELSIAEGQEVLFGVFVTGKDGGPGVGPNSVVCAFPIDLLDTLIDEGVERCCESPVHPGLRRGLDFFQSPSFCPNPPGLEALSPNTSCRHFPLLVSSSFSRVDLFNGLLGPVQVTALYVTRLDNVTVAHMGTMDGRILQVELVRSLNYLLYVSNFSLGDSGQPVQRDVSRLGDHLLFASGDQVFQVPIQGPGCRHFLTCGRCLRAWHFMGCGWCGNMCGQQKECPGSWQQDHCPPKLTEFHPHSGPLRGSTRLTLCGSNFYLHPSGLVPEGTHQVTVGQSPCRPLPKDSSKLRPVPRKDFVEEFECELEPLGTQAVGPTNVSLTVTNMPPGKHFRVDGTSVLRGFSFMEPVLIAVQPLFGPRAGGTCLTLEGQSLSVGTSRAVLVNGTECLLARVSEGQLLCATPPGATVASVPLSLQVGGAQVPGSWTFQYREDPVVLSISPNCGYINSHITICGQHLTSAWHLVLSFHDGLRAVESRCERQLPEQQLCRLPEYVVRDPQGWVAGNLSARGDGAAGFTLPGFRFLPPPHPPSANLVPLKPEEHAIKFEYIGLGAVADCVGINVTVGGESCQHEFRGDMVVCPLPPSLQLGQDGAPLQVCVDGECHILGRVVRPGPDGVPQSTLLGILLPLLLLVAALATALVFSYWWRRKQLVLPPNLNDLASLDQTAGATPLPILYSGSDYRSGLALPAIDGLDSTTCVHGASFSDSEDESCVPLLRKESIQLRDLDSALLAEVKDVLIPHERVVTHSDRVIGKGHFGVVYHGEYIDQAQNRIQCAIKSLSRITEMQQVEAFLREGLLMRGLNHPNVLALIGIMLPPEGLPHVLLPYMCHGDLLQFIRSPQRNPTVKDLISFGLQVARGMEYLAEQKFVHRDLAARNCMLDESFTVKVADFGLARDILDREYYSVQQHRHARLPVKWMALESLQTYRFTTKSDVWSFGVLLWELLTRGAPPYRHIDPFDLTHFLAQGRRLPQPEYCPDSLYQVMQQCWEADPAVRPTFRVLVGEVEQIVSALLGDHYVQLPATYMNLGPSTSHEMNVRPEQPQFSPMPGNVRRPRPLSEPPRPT
How it was run: as §1

[5] = target: T5, CAMK2D (CaMKII delta) (Homo sapiens, UniProt Q13557)
T5 construct: purchased ThermoFisher (SelectScreen, Z'-LYTE)
How it was run: as §1

[6] = target: T6, PRKCE (PKC epsilon) (Homo sapiens, UniProt Q02156)
T6 construct: purchased ThermoFisher (SelectScreen, Z'-LYTE)
T6 sequence (Q02156 1-737): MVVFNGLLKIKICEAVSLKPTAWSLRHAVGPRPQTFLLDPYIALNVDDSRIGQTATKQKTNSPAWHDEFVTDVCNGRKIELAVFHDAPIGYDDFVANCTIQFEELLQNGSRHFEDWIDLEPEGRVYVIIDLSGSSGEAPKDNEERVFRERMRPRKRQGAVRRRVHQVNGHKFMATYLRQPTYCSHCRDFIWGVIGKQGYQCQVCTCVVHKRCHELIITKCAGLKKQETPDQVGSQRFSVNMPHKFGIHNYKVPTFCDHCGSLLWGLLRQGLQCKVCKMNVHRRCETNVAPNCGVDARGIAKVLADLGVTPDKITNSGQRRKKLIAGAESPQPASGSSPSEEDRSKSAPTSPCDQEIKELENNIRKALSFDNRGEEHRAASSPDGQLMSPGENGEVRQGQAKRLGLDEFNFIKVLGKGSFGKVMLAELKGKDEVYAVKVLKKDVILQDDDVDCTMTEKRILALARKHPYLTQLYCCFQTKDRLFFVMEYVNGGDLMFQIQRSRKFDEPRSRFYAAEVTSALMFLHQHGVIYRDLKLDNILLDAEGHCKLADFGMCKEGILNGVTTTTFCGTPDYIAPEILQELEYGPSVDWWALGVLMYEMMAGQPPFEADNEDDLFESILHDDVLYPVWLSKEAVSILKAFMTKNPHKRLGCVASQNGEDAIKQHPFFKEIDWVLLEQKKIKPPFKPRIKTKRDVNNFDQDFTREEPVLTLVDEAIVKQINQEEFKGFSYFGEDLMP
How it was run: as §1

[7] = target: T7, PASK (Homo sapiens, UniProt Q96RG2)
T7 construct: purchased ThermoFisher (SelectScreen, Z'-LYTE)
How it was run: as §1

[8] = target: T8, CSNK1D (CK1 delta) (Homo sapiens, UniProt P48730)
T8 construct: purchased ThermoFisher (SelectScreen, Z'-LYTE)
T8 sequence (P48730 whole entry): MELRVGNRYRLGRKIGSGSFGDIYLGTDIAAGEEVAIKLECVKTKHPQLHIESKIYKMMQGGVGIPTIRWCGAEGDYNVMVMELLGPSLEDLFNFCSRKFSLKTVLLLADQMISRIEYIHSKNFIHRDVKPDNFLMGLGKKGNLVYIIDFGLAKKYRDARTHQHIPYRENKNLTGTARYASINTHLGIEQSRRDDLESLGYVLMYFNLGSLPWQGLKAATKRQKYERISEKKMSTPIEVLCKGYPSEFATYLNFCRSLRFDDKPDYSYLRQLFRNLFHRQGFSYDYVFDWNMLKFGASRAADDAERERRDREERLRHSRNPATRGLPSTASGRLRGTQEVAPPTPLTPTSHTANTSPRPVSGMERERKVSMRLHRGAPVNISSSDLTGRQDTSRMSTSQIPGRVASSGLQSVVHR
How it was run: as §1

[9] = target: T9, PRKACA (PKA) (Homo sapiens, UniProt P17612)
T9 construct: purchased ThermoFisher (SelectScreen, Z'-LYTE)
How it was run: as §1

[10] = target: T10, PRKCI (PKC iota) (Homo sapiens, UniProt P41743)
T10 construct: purchased ThermoFisher (SelectScreen, Z'-LYTE)
T10 sequence (P41743 1-596): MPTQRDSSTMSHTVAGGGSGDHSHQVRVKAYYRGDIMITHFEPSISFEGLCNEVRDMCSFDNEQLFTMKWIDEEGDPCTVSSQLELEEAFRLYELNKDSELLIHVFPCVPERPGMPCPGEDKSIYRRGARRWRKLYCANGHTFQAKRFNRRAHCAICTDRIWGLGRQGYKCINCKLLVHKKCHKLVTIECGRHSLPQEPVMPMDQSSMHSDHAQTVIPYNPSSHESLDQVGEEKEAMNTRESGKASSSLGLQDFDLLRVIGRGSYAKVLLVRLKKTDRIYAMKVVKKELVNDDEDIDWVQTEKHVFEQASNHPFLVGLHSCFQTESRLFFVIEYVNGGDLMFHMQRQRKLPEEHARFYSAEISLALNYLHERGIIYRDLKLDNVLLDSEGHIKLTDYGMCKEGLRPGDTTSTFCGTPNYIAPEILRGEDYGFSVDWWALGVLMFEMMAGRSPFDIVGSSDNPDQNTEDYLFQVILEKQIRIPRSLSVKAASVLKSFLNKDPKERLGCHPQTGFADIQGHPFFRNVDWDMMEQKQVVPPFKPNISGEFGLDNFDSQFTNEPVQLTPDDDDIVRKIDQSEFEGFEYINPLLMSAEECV
How it was run: as §1

[11] = target: T11, STK3 (MST2) (Homo sapiens, UniProt Q13188)
T11 construct: purchased ThermoFisher (SelectScreen, Z'-LYTE)
T11 sequence (Q13188 1-491): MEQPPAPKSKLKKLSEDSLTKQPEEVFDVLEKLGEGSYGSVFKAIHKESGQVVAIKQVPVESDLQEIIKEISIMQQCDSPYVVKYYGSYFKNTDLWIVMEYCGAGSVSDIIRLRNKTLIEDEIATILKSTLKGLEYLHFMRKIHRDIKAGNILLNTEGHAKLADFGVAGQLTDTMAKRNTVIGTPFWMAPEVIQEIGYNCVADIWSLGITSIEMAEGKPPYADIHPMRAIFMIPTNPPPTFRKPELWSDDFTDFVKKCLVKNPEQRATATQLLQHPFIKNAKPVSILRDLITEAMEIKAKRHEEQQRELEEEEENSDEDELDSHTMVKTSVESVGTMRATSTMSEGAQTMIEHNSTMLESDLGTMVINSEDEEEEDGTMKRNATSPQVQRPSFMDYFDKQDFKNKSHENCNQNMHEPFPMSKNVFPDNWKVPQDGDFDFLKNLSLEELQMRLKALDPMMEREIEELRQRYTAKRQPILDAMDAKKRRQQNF
How it was run: as §1

| Compound | inhibition at 10 µM [1] [%] | inhibition at 10 µM [2] [%] | inhibition at 10 µM [3] [%] | inhibition at 10 µM [4] [%] | inhibition at 10 µM [5] [%] | inhibition at 10 µM [6] [%] | inhibition at 10 µM [7] [%] | inhibition at 10 µM [8] [%] | inhibition at 10 µM [9] [%] | inhibition at 10 µM [10] [%] | inhibition at 10 µM [11] [%] | also measured |
| --- | --- | --- | --- | --- | --- | --- | --- | --- | --- | --- | --- | --- |
| Cc1ncc(-c2nc(Nc3ccc(C(=O)NCCN4CCCCC4)cc3)ncc2F)n1C(C)C [Compound 3] | -7 | 17 | 88 | 67 | 88 | 45 | 30 | 92 | 74 | 5.66 | 79 | – |
| Cc1cc(Nc2nc(N)nn2C(=O)NC(C)C)ccc1Cl [Compound 5] | -10 | 5 | 68 | 1.17 | -2.38 | -17 | 1.44 | -2 | 1.5 | -6 | 53 | – |
| XMD8-92 [Compound 2, reference compound] | – | – | – | – | – | – | – | – | – | – | – | STK22B (TSSK2) % Inhibition ([1]; 10 µM compound, ATP Km app): -0.837%; CDC42 BPA (MRCKA) % Inhibition ([2]; 10 µM compound, ATP Km app): -2.25%; AURKB (Aurora B) % Inhibition ([3]; 10 µM compound, ATP Km app): 39%; MST1R (RON) % Inhibition ([4]; 10 µM compound, ATP Km app): 37%; CAMK2D (CaMKII delta) % Inhibition ([5]; 10 µM compound, ATP Km app): 63%; PRKCE (PKC epsilon) % Inhibition ([6]; 10 µM compound, ATP Km app): 1.55%; PASK % Inhibition ([7]; 10 µM compound, ATP Km app): 49%; CSNK1D (CK1 delta) % Inhibition ([8]; 10 µM compound, ATP Km app): 4.56%; PRKACA (PKA) % Inhibition ([9]; 10 µM compound, ATP Km app): 56%; PRKCI (PKC iota) % Inhibition ([10]; 10 µM compound, ATP Km app): 0.17%; STK3 (MST2) % Inhibition ([11]; 10 µM compound, ATP Km app): -12% |
